This is an account of results in article PMC8677862, “Substrate binding modes of purine and pyrimidine nucleotides to human ecto-5′-nucleotidase (CD73) and inhibition by their bisphosphonic acid derivatives” (Purinergic Signalling, 2021).

Data set [1] addresses T1, CD73 (Homo sapiens, UniProt P21589, K145S/K147S/K478S/N311D/N333D/N403D/N53D/T376A).
T1 construct: His6 (C); made in house
T1 sequence (P21589 27-549 N53D/K145S/K147S/N311D/N333D/T376A/N403D/K478S limits assumed): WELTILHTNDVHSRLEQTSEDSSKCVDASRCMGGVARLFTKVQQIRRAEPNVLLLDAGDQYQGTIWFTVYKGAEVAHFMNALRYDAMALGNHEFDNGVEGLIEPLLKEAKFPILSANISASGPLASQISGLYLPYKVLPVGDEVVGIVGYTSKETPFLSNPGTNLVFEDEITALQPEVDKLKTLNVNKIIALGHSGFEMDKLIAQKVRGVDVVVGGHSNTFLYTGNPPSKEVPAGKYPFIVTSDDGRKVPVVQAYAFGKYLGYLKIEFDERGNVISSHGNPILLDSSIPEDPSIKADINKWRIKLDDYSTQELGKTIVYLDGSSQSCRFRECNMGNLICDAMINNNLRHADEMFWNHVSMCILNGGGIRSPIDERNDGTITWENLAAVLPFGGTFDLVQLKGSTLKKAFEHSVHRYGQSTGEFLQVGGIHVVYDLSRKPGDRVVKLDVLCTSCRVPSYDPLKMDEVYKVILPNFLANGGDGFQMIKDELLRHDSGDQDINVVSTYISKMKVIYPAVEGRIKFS
The data set can be described thus: CD73 inhibition, malachite green assay. It is filed as biochemical. The method, then:
(§1) In this study, enzyme activity and inhibition data was characterised using a modified malachite green assay. Each assay consisted of reaction buffer A (50 mM Tris–HCl pH 7.5, 100 mM NaCl, 1 mM MgCl2) to which the appropriate substrate and/or inhibitors (see Table S1) were added. Dissolved compounds were immediately used for the inhibition assays. The reactions were generally initiated by the addition of protein. The protein concentrations, substrates and inhibitors used for the various experiments are detailed below. In all experiments, reactions were monitored over a 10-min period during which samples were taken at regular intervals. At each desired time point, a malachite green/molybdate (1:1) solution was added to the sample, which simultaneously terminated the assay and also allowed the detection of the produced phosphate ions. These reaction mixtures were incubated at 25 °C for 25 min, followed by measurement of the absorbance at 620 nm. A standard curve (0–50 μM orthophosphate) was performed prior to each assay and was used to calculate the phosphate concentration. All measurements were carried out in triplicate.
To study the inhibition kinetics of CD73 against a panel of commercially available nucleotide-diphosphate analogues (AMPCP, GMPCP, dUMPCP and CMPCP; see Table S1), their IC50 values were determined. In these tests, CD73 protein (1.25 ng) was incubated in reaction buffer A containing various inhibitor concentrations (0.015, 0.031, 0.061, 0.12, 0.24, 0.49, 0.98, 1.95, 3.91, 7.81, 15.62, 31.25, 62.5, 125, 250 and 500 μM). […] Dose–response curves were plotted in GraphPad Prism (GraphPad Prism Software, La Jolla, CA, USA), and the inflection point of each curve was used to determine the IC50 value of each inhibitor. The IC50 values were then used to calculate the Ki value of each inhibitor using the Cheng-Prusoff equation [51].

For data set [2], the system named is rat CD73. The data set can be described thus: Literature inhibition of rat CD73. It is filed as biochemical. The note with it: rat CD73, from literature Ki values.
The target of data set [3] is rat CD73. The note with it: cited from earlier work.
In data set [4] the target is T1, CD73. Description: Michaelis–Menten kinetics of CD73-mediated AMP hydrolysis, malachite green assay. The following applies: AMP 5-200 μM, 1.25 ng CD73. The class given is biochemical. The method, then:
as §1, with “A standard curve (0–50 μM orthophosphate) was performed prior to each assay and was used to calculate the phosphate concentration. All measurements were carried out in triplicate.” left out
The specific activity (μmol Pi/min/mg protein) was calculated from the initial reaction rates and was used to determine when the protein refolding process had reached completion. […] Kinetic values were determined by fitting the Michaelis–Menten equation to the initial reaction rates using GraphPad Prism (GraphPad Software, La Jolla, CA, USA). […]

Data set [5] concerns CD73. The following applies: cited from earlier work; for Km: AMP as substrate; for specific activity: AMP.
On the set-up of data set [6]: method as in earlier work. The following applies: last proton on the β-phosphonate group; cited from earlier work.

SMILES strings stand for the structures. “And” between values parts separate entries of the source, which are not always exact repeats. Equal values may be shown once. Where a name gives a salt, the structure may show the parent alone. Read-outs that look alike come from different tables or passages of the source.

A word on the Ki: it is a dissociation constant, usually derived from enzyme kinetics or from competition with a known ligand. The IC50 is the concentration that inhibits the measured activity by half. As usually defined, the Km is the concentration of substrate that gives half-maximal velocity. As usually defined, the pKa is the negative logarithm of the acid dissociation constant.

Regarding `Nc1ccn([C@@H]2O[C@H](COP(=O)(O)CP(=O)(O)O)[C@@H](O)[C@H]2O)c(=O)n1` [CMPCP, Cytidine-5'-[(α,β)-methyleno]diphosphate, Sodium salt], the Ki is 304 ± 5.8 nM at CD73 [1] (calculated from IC50 with the Cheng-Prusoff equation, human deglycosylated CD73 construct, read-out: Ki) and 898 ± 63 nM at rat CD73 [3]. Besides, the “ratio Ki (CMPCP)/Ki (AMPCP)” value is reported as 5.1 at CD73 [1] (human CD73 construct of this work) and 4.6 in the data set on rat CD73 [2]. In addition, the IC50 at CD73 [1] (read-out: IC50) was 3200 ± 20 nM.

As to `Nc1ncnc2c1ncn2[C@@H]1O[C@H](COP(=O)(O)O)[C@@H](O)[C@H]1O` [AMP, Adenosine 5'-monophosphate], on CD73 [4], the Vmax stood at 301.2 ± 2.9 U/mg. Moreover, the Km in the data set on CD73 [5] (same construct after refolding) is 6.6 µM and 7 µM; in the data set on CD73 [5] (ref 8) it was 1 to 50 µM; in the data set with CD73 [5] (ref 29) it was 59 µM. The results for the specific activity with CD73 [5] (human CD73 purified from an adenocarcinoma cell line) and with CD73 [5] (this construct after refolding) were 130 U/mg and 577.2 U/mg, respectively. The turnover rate with CD73 [5] (substrate of CD73) was 856 nmol/min/mg.

Turning to `Nc1ncnc2c1ncn2[C@@H]1O[C@H](COP(=O)(O)CP(=O)(O)O)[C@@H](O)[C@H]1O` [AMPCP, Adenosin 5'-[α,β-methylene] diphosphoric acid], the Ki at rat CD73 [3] was 197 ± 5 nM. In addition, the pKa in data set [6] was 8.3.
